The source of these data is patent publication US20260200939A1, “MOLECULAR GLUE DEGRADER COMPOUNDS AND USES THEREOF” (Novartis AG, priority 2022, published 2026).

T1 sequence (Q9BV68 whole entry): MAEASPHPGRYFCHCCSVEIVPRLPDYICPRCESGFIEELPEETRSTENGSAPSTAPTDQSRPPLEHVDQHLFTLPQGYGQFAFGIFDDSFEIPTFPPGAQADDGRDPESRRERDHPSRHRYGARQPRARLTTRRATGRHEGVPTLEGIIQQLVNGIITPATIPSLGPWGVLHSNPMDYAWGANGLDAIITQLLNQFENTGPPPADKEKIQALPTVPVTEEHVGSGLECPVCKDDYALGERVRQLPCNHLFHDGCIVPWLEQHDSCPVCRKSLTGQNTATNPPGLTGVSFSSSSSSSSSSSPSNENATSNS

One assay addresses T1, Recombinant RNF126 (Homo sapiens, UniProt Q9BV68).
T1 construct: FLAG (C); host or cells: HEK293T
The experiment in a line: RNF126 Binding Assay, gel-based ABPP.
Conditions: not given
As for the experimental part: RNF126 mammalian expression plasmid with a C-terminal FLAG tag was purchased from Origene (Origene Technologies Inc., RC204986). The plasmid was transformed into NEB 5-alpha Competent E. coli (DH5) cells (NEB product no. C2987H). The following day, a single transformed colony was used to inoculate 50 ml of nutrient rich LB medium containing kanamycin (50 μg/ml) and was incubated at 37° C. overnight, with agitation (250 rpm). A Miniprep (Qiagen) kit was used to isolate the plasmid before sequence verification with appropriate primers.
HEK293T cells were grown to 30-50% confluency in DMEM supplemented with 10% FBS (Corning) and maintained at 37° C. with 5% CO2. Immediately before transfection, media was replaced with DMEM containing 5% FBS. Each plate was transfected with 24 μg of overexpression plasmid with 24 μL Lipofectamine 3000 (Invitrogen) in Opti-MEM. After 48 h cells were collected in PBS, lysed by sonication, and batch bound with anti-DYKDDDDK resin (GenScript, L00432) for 2 hours. Lysate and resin were washed with PBS and eluted with 133.33 μg/ml 3×FLAG peptide (ApexBio, A6001) in PBS. Five elutions were performed for 15 minutes each. Elutions were concentrated and the protein was stored in PBS. Concentration and purity was determined using the BCA assay and western blotting.
Recombinant RNF126 ([…]) was pre-treated with either DMSO vehicle or covalent ligand at 37° C. for 30 min in 25 μL of PBS, and subsequently treated with of IA-Rhodamine (concentrations designated in figure legends) (Setareh Biotech) at room temperature for 1 h in the dark. The reaction was stopped by addition of 4×reducing Laemmli SDS sample loading buffer (Alfa Aesar). After boiling at 95° C. for 5 min, the samples were separated on precast 4-20% Criterion TGX gels (Bio-Rad). Probe-labeled proteins were analyzed by in-gel fluorescence using a ChemiDoc MP (Bio-Rad).
Take `CC(C)(C)OC(=O)N1CCN(C(=O)/C=C/C(=O)c2ccc3c(c2)NC(=O)CO3)CC1` [Compound 401, tert-butyl (E)-4-(4-oxo-4-(3-oxo-3,4-dihydro-2H-benzo[b][1,4]oxazin-6-yl)but-2-enoyl)piperazine-1-carboxylate]: the IC50 is less than 100 nM.
As for `CC(C)(C)OC(=O)N1CCN(C(=O)/C=C/C(=O)c2ccc3c(c2)OCC3)CC1` [Compound 404, tert-butyl (E)-4-(4-(2,3-dihydrobenzofuran-6-yl)-4-oxobut-2-enoyl)piperazine-1-carboxylate], the IC50 is less than 100 nM.
For the compound `Cc1ccccc1C(=O)/C=C/C(=O)N1CCN(C(=O)OC(C)(C)C)CC1` [Compound 407, tert-butyl (E)-4-(4-oxo-4-(o-tolyl)but-2-enoyl)piperazine-1-carboxylate], the IC50 was less than 100 nM.
On to `COc1ccc(C(=O)/C=C\C(=O)N2CCN(C(=O)OC(C)(C)C)CC2)cc1` [Compound 411, tert-butyl (Z)-4-(4-(4-methoxyphenyl)-4-oxobut-2-enoyl)piperazine-1-carboxylate], for which the IC50 lay in the range of 10000 to 50000 nM.
Same read-out and setting: in the case of `COc1ccc(C(=O)/C=C/C(=O)N2CCN(C(=O)OC(C)(C)C)CC2)cc1F` [Compound 414, tert-butyl (E)-4-(4-(3-fluoro-4-methoxyphenyl)-4-oxobut-2-enoyl)piperazine-1-carboxylate] it was less than 100 nM.
Regarding `CC(C)(C)OC(=O)N1CCN(C(=O)/C=C/C(=O)c2ccccc2C#N)CC1` [Compound 415, tert-butyl (E)-4-(4-(2-cyanophenyl)-4-oxobut-2-enoyl)piperazine-1-carboxylate], the IC50 was less than 100 nM.
Still for that read-out and setting: in the case of `CC(C)(C)OC(=O)N1CCN(C(=O)/C=C/C(=O)c2ccc(C#N)cc2)CC1` [Compound 416, tert-butyl (E)-4-(4-(4-cyanophenyl)-4-oxobut-2-enoyl)piperazine-1-carboxylate] it was less than 100 nM.

The same assay, now with this note: range with lower bound in nM and upper bound in μM.
Take `CC(C)(C)OC(=O)N1CCN(C(=O)/C=C/C(=O)c2ccc3c(c2)OCCO3)CC1` [Compound 400, tert-butyl (E)-4-(4-(2,3-dihydrobenzo[b][1,4]dioxin-6-y1)-4-oxobut-2-enoy1)piperazine-1-carboxylate]: the half-maximal inhibitory concentration (IC50) was in the range of 100 to 1000 nM.
For the compound `COc1ccc(C(=O)/C=C/C(=O)N2CCN(C(=O)OC(C)(C)C)CC2)cn1` [Compound 402, tert-butyl (E)-4-(4-(6-methoxypyridin-3-yl)-4-oxobut-2-enoyl)piperazine-1-carboxylate], the IC50 lay within 100 to 1000 nM.
On the same count and under the same terms, in the case of `Cn1cc(C(=O)/C=C/C(=O)N2CCN(C(=O)OC(C)(C)C)CC2)ccc1=O` [Compound 403, tert-butyl (E)-4-(4-(1-methyl-6-oxo-1,6-dihydropyridin-3-y1)-4-oxobut-2-enoyl)piperazine-1-carboxylate] it was 100 to 1000 nM; in that of `CC(C)(C)OC(=O)N1CCN(C(=O)/C=C/C(=O)c2ccc3c(c2)CCO3)CC1` [Compound 405, tert-butyl (E)-4-(4-(2,3-dihydrobenzofuran-5-y1)-4-oxobut-2-enoyl)piperazine-1-carboxylate], 100 to 1000 nM; in that of `Cc1ccc(C(=O)/C=C/C(=O)N2CCN(C(=O)OC(C)(C)C)CC2)cc1` [Compound 406, tert-butyl (E)-4-(4-oxo-4-(p-tolyl)but-2-enoyl)piperazine-1-carboxylate], 100 to 1000 nM.
For the compound `C#CCCCCC(=O)N1CCN(C(=O)/C=C/C(=O)c2ccc(OC)cc2)CC1` [Compound 408, (E)-1-(4-(hept-6-ynoyl)piperazin-1-y1)-4-(4-methoxyphenyl)but-2-ene-1,4-dione], the IC50 is 100 to 1000 nM.
The same measure, in the same setting: under `C#CCOCCC(=O)N1CCN(C(=O)/C=C/C(=O)c2ccc(OC)cc2)CC1` [Compound 409, (E)-1-(4-methoxyphenyl)-4-(4-(3-(prop-2-yn-1-yloxy)propanoyl)piperazin-1-yl)but-2-ene-1,4-dione] stands 100 to 1000 nM; under `COc1ccc(C(=O)/C=C/C(=O)N2CCN(C(=O)OC(C)(C)C)CC2)c(F)c1` [Compound 412, tert-butyl (E)-4-(4-(2-fluoro-4-methoxyphenyl)-4-oxobut-2-enoyl)piperazine-1-carboxylate], 100 to 1000 nM.
For the compound `COc1cc(F)ccc1C(=O)/C=C/C(=O)N1CCN(C(=O)OC(C)(C)C)CC1` [Compound 413, tert-butyl (E)-4-(4-(4-fluoro-2-methoxyphenyl)-4-oxobut-2-enoyl)piperazine-1-carboxylate], the IC50 lay within 100 to 1000 nM.
As to `CC(C)(C)OC(=O)N1CCN(C(=O)/C=C/C(=O)c2cccc(C#N)c2)CC1` [Compound 417, tert-butyl (E)-4-(4-(3-cyanophenyl)-4-oxobut-2-enoyl)piperazine-1-carboxylate], the IC50 lay within 100 to 1000 nM.
For `COc1ccc(C(=O)/C=C/C(=O)N2CCN(C(=O)OC(C)(C)C)CC2)c(Cl)c1` [Compound 418, tert-butyl (E)-4-(4-(2-chloro-4-methoxyphenyl)-4-oxobut-2-enoyl)piperazine-1-carboxylate], the IC50 lay within 100 to 1000 nM.
On to `C#CCOc1ccc(C(=O)/C=C/C(=O)N2CCN(C(=O)OC(C)(C)C)CC2)cc1` [Compound 419, tert-butyl (E)-4-(4-oxo-4-(4-(prop-2-yn-1-yloxy)phenyl)but-2-enoyl)piperazine-1-carboxylate], for which the IC50 fell in the range of 100 to 1000 nM.

In another assay the target is T2, CDK4 (Homo sapiens, UniProt P11802).
T2 construct: endogenous in cells; host or cells: C33A
The experiment in a line: CDK4 Degradation Assay, Western blotting.
Conditions: not given
It is filed as cell-based. Here is the method: C33A cells were purchased from American Type Culture Collection (ATCC) and were cultured in Dulbecco's Modified Eagle Medium (DMEM) containing 10% (v/v) fetal bovine serum (FBS) and maintained at 37° C. with 5% CO2. 22RV1 cells were purchased from the ATCC and were cultured in RPMI-1640 Medium containing 10% (v/v) FBS and maintained at 37° C. with 5% CO2. HEK293T cells were obtained from the UC Berkeley Cell Culture Facility and were cultured in DMEM containing 10% (v/v) FBS and maintained at 37° C. with 5% CO2. K562 cells were obtained from the UC Berkeley Cell Culture Facility and were cultured in Iscove's Modified Dulbecco's Medium (IMDM) containing 10% (v/v) FBS and maintained at 37° C. with 5% CO2. MV-4-11 cells were obtained from the ATCC and were cultured in IMDM containing 10% (v/v) FBS and maintained at 37° C. with 5% CO2. A549 cells were obtained from the ATCC and were cultured in F-12K Medium containing 10% (v/v) FBS and maintained at 37° C. with 5% CO2. Mino cells were obtained from the ATCC and were cultured in RPMI-1640 Medium containing 10% (v/v) FBS and maintained at 37° C. with 5% CO2. LNCaP cells were obtained from the ATCC and were cultured in RPMI-1640 Medium containing 10% (v/v) FBS and maintained at 37° C. with 5% CO2. Unless otherwise specified, all cell culture materials were purchased from Gibco. It is not known whether HEK293T cells are from male or female origin.
Cells were washed twice with cold PBS, scraped, and pelleted by centrifugation (700 g, 5 min, 4° C.). Pellets were resuspended in PBS, sonicated, clarified by centrifugation (12,000 g, 10 min, 4° C.), and lysate was transferred to new low-adhesion microcentrifuge tubes. Proteome concentrations were determined using BCA assay and lysate was diluted to appropriate working concentrations.
Proteins were resolved by SDS/PAGE and transferred to nitrocellulose membranes using the Trans-Blot Turbo transfer system (Bio-Rad). Membranes were blocked with 5% BSA in Tris-buffered saline containing Tween 20 (TBS-T) solution for 30 min at RT, washed in TBS-T, and probed with primary antibody diluted in recommended diluent per manufacturer overnight at 4° C. After 3 washes with TBS-T, the membranes were incubated in the dark with IR680- or IR800-conjugated secondary antibodies at 1:10,000 dilution in 5% BSA in TBS-T at RT for 1 h. After 3 additional washes with TBST, blots were visualized using an Odyssey Li-Cor fluorescent scanner. The membranes were stripped using ReBlot Plus Strong Antibody Stripping Solution (EMD Millipore) when additional primary antibody incubations were performed. Antibodies used in this study were CDK4 (Abcam ab108357), Vinculin (Abcam ab129002), GAPDH (Cell Signaling Technology 14C10), RNF126 (Santa Cruz Biotechnology sc-376005), BRD4 (Abcam ab128874), Beta Actin (Cell Signaling Technology 13E5), PDE5 (Abcam ab259945), AR-V7 (Abcam ab273500), c-Abl (Santa Cruz Biotechnology sc-23), SMARCA2 (Abcam ab240648), LRRK2 (Abcam ab133474), BTK (Cell Signaling Technology D3H5), Androgen Receptor (Abcam ab133273).
Take `COc1ccc(C(=O)/C(C)=C/C(=O)N2CCN(c3ccc(Nc4ncc5cc(C(=O)N(C)C)n(C6CCCC6)c5n4)nc3)CC2)cc1` [Compound 146, (E)-7-cyclopentyl-2-((5-(4-(4-(4-methoxyphenyl)-3-methyl-4-oxobut-2-enoyl)piperazin-1-yl)pyridin-2-yl)amino)-N,N-dimethyl-7H-pyrrolo[2,3-d]pyrimidine-6-carboxamide]: the DC50 is greater than 10000 nM.
Consider `COc1ccccc1C(=O)/C=C/C(=O)N1CCN(c2ccc(Nc3ncc4cc(C(=O)N(C)C)n(C5CCCC5)c4n3)nc2)CC1` [Compound 148, (E)-7-cyclopentyl-2-((5-(4-(4-(2-methoxyphenyl)-4-oxobut-2-enoyl)piperazin-1-yl)pyridin-2-yl)amino)-N,N-dimethyl-7H-pyrrolo[2,3-d]pyrimidine-6-carboxamide], for which the DC50 was greater than 10000 nM.
On the same count and under the same terms, in the case of `CN(C)C(=O)c1cc2cnc(Nc3ccc(N4CCN(C(=O)/C=C/C(=O)c5ccc(F)cc5)CC4)cn3)nc2n1C1CCCC1` [Compound 151, (E)-7-cyclopentyl-2-((5-(4-(4-(4-fluorophenyl)-4-oxobut-2-enoyl)piperazin-1-yl)pyridin-2-yl)amino)-N,N-dimethyl-7H-pyrrolo[2,3-d]pyrimidine-6-carboxamide] it was greater than 10000 nM.
